Assay results: patent US20250129069A1, “TRIAZOLO WRN INHIBITORS” (Nimbus Wadjet, Inc., priority 2023, published 2025)

Columns and labels:
[1] = tested on: p21 induction in HCT 116 cells; assay: p21 induction in cells (In-Cell Western, p21/GAPDH ratio); format: cell-based; conditions: Homo sapiens, 24 h compound incubation, read-out: p21_EC50
Outline: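 EC50 values come from nonlinear fits of percent activation, defined by the 800/700 nm p21-to-GAPDH ratio scaled between DMSO (low) and internal WRN inhibitor (high) controls. In-Cell Western read after 24 h compound exposure of HCT 116 cells at 37° C. Duplicate 11-point series, 2-fold steps, usually starting at 10 μM.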

[2] = molecular target: human Werner helicase (WRN, amino acids 517-1235 with L1074F point mutation) (Homo sapiens (Human), UniProt Q14191, L1074F); assay: WRN (BV08) ADP-Glo assay; format: biochemical; conditions: human WRN (aa 517-1235, L1074F), read-out: ADP-Glo_hWRN_IC50
Outline: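 ADP-Glo luminescence read after 60 min, 25 °C reaction of 0.15 nM WRN (517-1235, L1074F, Sf9-expressed, tag removed) with 0.1 nM DNA duplex and 5 μM ATP, following 15 min compound preincubation; 20 mM Bicine pH 7.5, 1% DMSO. IC50 from 3- or 4-parameter fit of % inhibition.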

Sequence of human Werner helicase (WRN, amino acids 517-1235 with L1074F point mutation) (Q14191 other isoform, or with tags, fused parts or gaps L1074F (already in the parent)): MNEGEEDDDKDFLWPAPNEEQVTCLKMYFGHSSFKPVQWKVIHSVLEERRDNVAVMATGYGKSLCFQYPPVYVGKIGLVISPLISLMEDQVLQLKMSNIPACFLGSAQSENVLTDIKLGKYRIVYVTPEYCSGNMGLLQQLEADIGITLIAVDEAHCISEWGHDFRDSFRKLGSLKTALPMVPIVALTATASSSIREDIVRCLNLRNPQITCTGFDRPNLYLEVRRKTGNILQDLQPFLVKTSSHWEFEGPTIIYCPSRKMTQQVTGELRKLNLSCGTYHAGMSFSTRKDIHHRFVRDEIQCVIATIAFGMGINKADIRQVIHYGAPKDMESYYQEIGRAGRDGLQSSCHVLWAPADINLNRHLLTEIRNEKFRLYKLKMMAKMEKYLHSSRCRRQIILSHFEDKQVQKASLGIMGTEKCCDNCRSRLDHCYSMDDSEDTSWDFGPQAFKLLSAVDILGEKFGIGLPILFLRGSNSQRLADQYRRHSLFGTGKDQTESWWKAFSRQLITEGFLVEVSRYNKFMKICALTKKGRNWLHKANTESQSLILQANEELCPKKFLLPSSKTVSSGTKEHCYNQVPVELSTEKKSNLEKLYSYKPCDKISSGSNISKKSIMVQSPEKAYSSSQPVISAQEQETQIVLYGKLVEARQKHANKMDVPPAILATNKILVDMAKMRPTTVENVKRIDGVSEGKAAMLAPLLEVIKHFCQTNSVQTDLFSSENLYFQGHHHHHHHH

Row | SMILES | EC50 [1] | IC50 [2]
1 | CCc1c(N2CCN(C(=O)c3cnccc3OC)[C@H]3CC[C@@H]32)c(=O)c2nn(C3=CCOCC3)nc2n1CC(=O)NC12CC(C(C)C)(C1)C2 [Compound I-203, 2-[2-(3,6-dihydro-2H-pyran-4-yl)-5-ethyl-6-[(1S,6S)-5-(4-methoxypyridine-3-carbonyl)-2,5-diazabicyclo[4.2.0]octan-2-yl]-7-oxo-2H,4H,7H-[1,2,3]triazolo[4,5-b]pyridin-4-yl]-N-[3-(propan-2-yl)bicyclo[1.1.1]pentan-1-yl]acetamide] | 500 to 2000 nM | 5 to 50 nM
2 | CCc1c(N2CCN(C(=O)c3ncccc3OC)[C@H]3CC[C@@H]32)c(=O)c2nn(C3=CCOCC3)nc2n1CC(=O)NC12CC(C(C)C)(C1)C2 [Compound I-204, 2-[2-(3,6-dihydro-2H-pyran-4-yl)-5-ethyl-6-[(1S,6S)-5-(3-methoxypyridine-2-carbonyl)-2,5-diazabicyclo[4.2.0]octan-2-yl]-7-oxo-2H,4H,7H-[1,2,3]triazolo[4,5-b]pyridin-4-yl]-N-[3-(propan-2-yl)bicyclo[1.1.1]pentan-1-yl]acetamide] | 500 to 2000 nM | 5 to 50 nM
3 | CCc1c(N2CCN(C(=O)c3cccc4c3OCCN4C)[C@H]3CC[C@@H]32)c(=O)c2nn(C3=CCOCC3)nc2n1CC(=O)NC12CC(C3CC3)(C1)C2 [Compound I-205, N-{3-cyclopropylbicyclo[1.1.1]pentan-1-yl}-2-[2-(3,6-dihydro-2H-pyran-4-yl)-5-ethyl-6-[(1S,6S)-5-(4-methyl-3,4-dihydro-2H-1,4-benzoxazine-8-carbonyl)-2,5-diazabicyclo[4.2.0]octan-2-yl]-7-oxo-2H,4H,7H-[1,2,3]triazolo[4,5-b]pyridin-4-yl]acetamide] | 500 to 2000 nM | 5 to 50 nM
4 | CCc1c(N2CCN(C(=O)c3cnn(C)c3)[C@H]3CC[C@@H]32)c(=O)c2nn(C3=CCOCC3)nc2n1CC(=O)NC12CC(C(C)C)(C1)C2 [Compound I-206, 2-[2-(3,6-dihydro-2H-pyran-4-yl)-5-ethyl-6-[(1S,6S)-5-(1-methyl-1H-pyrazole-4-carbonyl)-2,5-diazabicyclo[4.2.0]octan-2-yl]-7-oxo-2H,4H,7H-[1,2,3]triazolo[4,5-b]pyridin-4-yl]-N-[3-(propan-2-yl)bicyclo[1.1.1]pentan-1-yl]acetamide] | 500 to 2000 nM | 5 to 50 nM
5 | CCc1c(N2CCN(C(=O)c3cccnc3OC(F)F)[C@H]3CC[C@@H]32)c(=O)c2nn(C3=CCOCC3)nc2n1CC(=O)NC12CC(C(C)C)(C1)C2 [Compound I-207, 2-{6-[(1S,6S)-5-[2-(difluoromethoxy)pyridine-3-carbonyl]-2,5-diazabicyclo[4.2.0]octan-2-yl]-2-(3,6-dihydro-2H-pyran-4-yl)-5-ethyl-7-oxo-2H,4H,7H-[1,2,3]triazolo[4,5-b]pyridin-4-yl}-N-[3-(propan-2-yl)bicyclo[1.1.1]pentan-1-yl]acetamide] | 500 to 2000 nM | 5 to 50 nM
6 | CCc1c(N2CCN(C(=O)c3ccncc3OC)[C@H]3CC[C@@H]32)c(=O)c2nn(C3=CCOCC3)nc2n1CC(=O)NC12CC(C(C)C)(C1)C2 [Compound I-208, 2-[2-(3,6-dihydro-2H-pyran-4-yl)-5-ethyl-6-[(1S,6S)-5-(3-methoxypyridine-4-carbonyl)-2,5-diazabicyclo[4.2.0]octan-2-yl]-7-oxo-2H,4H,7H-[1,2,3]triazolo[4,5-b]pyridin-4-yl]-N-[3-(propan-2-yl)bicyclo[1.1.1]pentan-1-yl]acetamide] | 500 to 2000 nM | 5 to 50 nM
7 | CCc1c(N2CCN(C(=O)c3cn(C)nc3OC)[C@H]3CC[C@@H]32)c(=O)c2nn(C3=CCOCC3)nc2n1CC(=O)NC12CC(C(C)C)(C1)C2 [Compound I-209, 2-[2-(3,6-dihydro-2H-pyran-4-yl)-5-ethyl-6-[(1S,6S)-5-(3-methoxy-1-methyl-1H-pyrazole-4-carbonyl)-2,5-diazabicyclo[4.2.0]octan-2-yl]-7-oxo-2H,4H,7H-[1,2,3]triazolo[4,5-b]pyridin-4-yl]-N-[3-(propan-2-yl)bicyclo[1.1.1]pentan-1-yl]acetamide] | 500 to 2000 nM | 5 to 50 nM
8 | CCc1c(N2CCN(C(=O)c3cnn(C)c3OC)[C@H]3CC[C@@H]32)c(=O)c2nn(C3=CCOCC3)nc2n1CC(=O)NC12CC(C(C)C)(C1)C2 [Compound I-210, 2-[2-(3,6-dihydro-2H-pyran-4-yl)-5-ethyl-6-[(1S,6S)-5-(5-methoxy-1-methyl-1H-pyrazole-4-carbonyl)-2,5-diazabicyclo[4.2.0]octan-2-yl]-7-oxo-2H,4H,7H-[1,2,3]triazolo[4,5-b]pyridin-4-yl]-N-[3-(propan-2-yl)bicyclo[1.1.1]pentan-1-yl]acetamide] | 500 to 2000 nM | 5 to 50 nM
9 | CCc1c(N2CCN(C(=O)c3c(OC)ncc(Cl)c3O)[C@H]3CC[C@@H]32)c(=O)c2nn(C3=CCOCC3)nc2n1CC(=O)NC12CC(C3CC3)(C1)C2 [Compound I-213, 2-{6-[(1S,6S)-5-(5-chloro-4-hydroxy-2-methoxypyridine-3-carbonyl)-2,5-diazabicyclo[4.2.0]octan-2-yl]-2-(3,6-dihydro-2H-pyran-4-yl)-5-ethyl-7-oxo-2H,4H,7H-[1,2,3]triazolo[4,5-b]pyridin-4-yl}-N-{3-cyclopropylbicyclo[1.1.1]pentan-1-yl}acetamide] | 2000 to 5000 nM | 5 to 50 nM
10 | CCc1c(N2CCN(C(=O)c3c(OC)ccc[n+]3[O-])CC2)c(=O)c2nn(C3=CCOCC3)nc2n1CC(=O)Nc1ccc(C(F)(F)F)cc1Cl [Compound I-214, 2-{4-[4-({[2-chloro-4-(trifluoromethyl)phenyl]carbamoyl}methyl)-2-(3,6-dihydro-2H-pyran-4-yl)-5-ethyl-7-oxo-2H,4H,7H-[1,2,3]triazolo[4,5-b]pyridin-6-yl]piperazine-1-carbonyl}-3-methoxypyridin-1-ium-1-olate] | > 5000 nM | 5 to 50 nM

Now from value to compound:

Row | EC50 [1] | IC50 [2] | SMILES
11 | ≤ 500 nM | 5 to 50 nM | CCc1c(N2CCN(C(=O)c3cccnc3OC)[C@H]3CC[C@@H]32)c(=O)c2nn(C3=CCOCC3)nc2n1CC(=O)NC12CC(C(C)C)(C1)C2 [Compound I-198, 2-[2-(3,6-dihydro-2H-pyran-4-yl)-5-ethyl-6-[(1S,6S)-5-(2-methoxypyridine-3-carbonyl)-2,5-diazabicyclo[4.2.0]octan-2-yl]-7-oxo-2H,4H,7H-[1,2,3]triazolo[4,5-b]pyridin-4-yl]-N-[3-(propan-2-yl)bicyclo[1.1.1]pentan-1-yl]acetamide]
12 | ≤ 500 nM | 5 to 50 nM | CCc1c(N2CCN(C(=O)c3cccc4oc(=O)[nH]c34)[C@H]3CC[C@@H]32)c(=O)c2nn(C3=CCOCC3)nc2n1CC(=O)NC12CC(C(C)C)(C1)C2 [Compound I-199, 2-[2-(3,6-dihydro-2H-pyran-4-yl)-5-ethyl-7-oxo-6-[(1S,6S)-5-(2-oxo-2,3-dihydro-1,3-benzoxazole-4-carbonyl)-2,5-diazabicyclo[4.2.0]octan-2-yl]-2H,4H,7H-[1,2,3]triazolo[4,5-b]pyridin-4-yl]-N-[3-(propan-2-yl)bicyclo[1.1.1]pentan-1-yl]acetamide]
13 | ≤ 500 nM | 5 to 50 nM | CCc1c(N2CCN(C(=O)c3nccnc3OC)[C@H]3CC[C@@H]32)c(=O)c2nn(C3=CCOCC3)nc2n1CC(=O)NC12CC(C(C)C)(C1)C2 [Compound I-200, 2-[2-(3,6-dihydro-2H-pyran-4-yl)-5-ethyl-6-[(1S,6S)-5-(3-methoxypyrazine-2-carbonyl)-2,5-diazabicyclo[4.2.0]octan-2-yl]-7-oxo-2H,4H,7H-[1,2,3]triazolo[4,5-b]pyridin-4-yl]-N-[3-(propan-2-yl)bicyclo[1.1.1]pentan-1-yl]acetamide]
14 | ≤ 500 nM | 5 to 50 nM | CCc1c(N2CCN(C(=O)c3cncnc3OC)[C@H]3CC[C@@H]32)c(=O)c2nn(C3=CCOCC3)nc2n1CC(=O)NC12CC(C(C)C)(C1)C2 [Compound I-201, 2-[2-(3,6-dihydro-2H-pyran-4-yl)-5-ethyl-6-[(1S,6S)-5-(4-methoxypyrimidine-5-carbonyl)-2,5-diazabicyclo[4.2.0]octan-2-yl]-7-oxo-2H,4H,7H-[1,2,3]triazolo[4,5-b]pyridin-4-yl]-N-[3-(propan-2-yl)bicyclo[1.1.1]pentan-1-yl]acetamide]
15 | 500 to 2000 nM | 5 to 50 nM | CCc1c(N2CCN(C(=O)c3ncnc(C)c3O)[C@H]3CC[C@@H]32)c(=O)c2nn(C3CC3)nc2n1CC(=O)NC12CC(C3CC3)(C1)C2 [Compound I-202, 2-{2-cyclopropyl-5-ethyl-6-[(1S,6S)-5-(5-hydroxy-6-methylpyrimidine-4-carbonyl)-2,5-diazabicyclo[4.2.0]octan-2-yl]-7-oxo-2H,4H,7H-[1,2,3]triazolo[4,5-b]pyridin-4-yl}-N-{3-cyclopropylbicyclo[1.1.1]pentan-1-yl}acetamide]
16 | ≤ 500 nM | ≤ 5 nM | CCc1c(N2CCN(C(=O)c3cccnc3OC)[C@H]3CC[C@@H]32)c(=O)c2nn(C3=CCOCC3)nc2n1CC(=O)Nc1ccc(C(F)F)cc1F [Compound I-211, N-[4-(difluoromethyl)-2-fluorophenyl]-2-[2-(3,6-dihydro-2H-pyran-4-yl)-5-ethyl-6-[(1S,6S)-5-(2-methoxypyridine-3-carbonyl)-2,5-diazabicyclo[4.2.0]octan-2-yl]-7-oxo-2H,4H,7H-[1,2,3]triazolo[4,5-b]pyridin-4-yl]acetamide]
